Columns and labels:
[1] = molecular target: Calcium/calmodulin-dependent protein kinase type 1D (Homo sapiens) (UniProt Q8IU85); settings: Compound concentration 1000.0 nM
[2] = molecular target: Cyclin-dependent kinase-like 1 (Homo sapiens) (UniProt Q00532); settings: Compound concentration 1000.0 nM
[3] = molecular target: Mitogen-activated protein kinase 8 (Homo sapiens) (UniProt P45983); settings: Compound concentration 1000.0 nM
[4] = molecular target: 5-hydroxytryptamine receptor 3A (Homo sapiens) (UniProt P46098); settings: Compound concentration 10.0 uM
[5] = molecular target: Serine/threonine-protein kinase Nek11 (Homo sapiens) (UniProt Q8NG66); settings: Compound concentration 1000.0 nM
[6] = molecular target: Serine/threonine-protein kinase ULK2 (Homo sapiens) (UniProt Q8IYT8); settings: Compound concentration 1000.0 nM
[7] = molecular target: 3-phosphoinositide-dependent protein kinase 1 (Homo sapiens) (UniProt O15530); settings: Compound concentration 1000.0 nM
[8] = molecular target: Casein kinase I isoform epsilon (Homo sapiens) (UniProt P49674); settings: Compound concentration 1000.0 nM
Casein kinase I isoform epsilon (Homo sapiens), sequence (P49674 whole entry, looked up, canonical isoform): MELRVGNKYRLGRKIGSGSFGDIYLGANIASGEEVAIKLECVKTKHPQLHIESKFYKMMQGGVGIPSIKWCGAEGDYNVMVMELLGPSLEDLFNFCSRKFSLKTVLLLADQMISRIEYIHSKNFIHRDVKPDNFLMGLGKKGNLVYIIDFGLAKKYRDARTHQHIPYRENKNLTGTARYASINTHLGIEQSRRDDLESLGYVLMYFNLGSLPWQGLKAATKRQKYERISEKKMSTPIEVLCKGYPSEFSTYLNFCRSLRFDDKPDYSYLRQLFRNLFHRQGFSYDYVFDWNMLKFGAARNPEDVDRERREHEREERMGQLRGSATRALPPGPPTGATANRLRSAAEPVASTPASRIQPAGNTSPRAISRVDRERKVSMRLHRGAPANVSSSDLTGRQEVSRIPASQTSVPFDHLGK

[9] = molecular target: Serine/threonine-protein kinase 16 (Homo sapiens) (UniProt O75716); settings: Compound concentration 1000.0 nM
[10] = molecular target: Tyrosine-protein kinase BTK (Homo sapiens) (UniProt Q06187); settings: Compound concentration 1000.0 nM
[11] = molecular target: Inhibitor of nuclear factor kappa-B kinase subunit epsilon (Homo sapiens) (UniProt Q14164); settings: Compound concentration 1000.0 nM
[12] = molecular target: Tyrosine-protein kinase JAK3 (Homo sapiens) (UniProt P52333); settings: Compound concentration 1000.0 nM
[13] = molecular target: Transient receptor potential cation channel subfamily M member 6 (Homo sapiens) (UniProt Q9BX84); settings: Compound concentration 1000.0 nM
[14] = system: Serine/threonine-protein kinase B-raf (Homo sapiens), P15056 [V600E]; settings: Compound concentration 1000.0 nM
[15] = molecular target: Serine/threonine-protein kinase SBK1 (Homo sapiens) (UniProt Q52WX2); settings: Compound concentration 1000.0 nM
[16] = molecular target: Mast/stem cell growth factor receptor Kit (Homo sapiens) (UniProt P10721); settings: Compound concentration 1000.0 nM
Mast/stem cell growth factor receptor Kit (Homo sapiens), sequence (P10721 whole entry): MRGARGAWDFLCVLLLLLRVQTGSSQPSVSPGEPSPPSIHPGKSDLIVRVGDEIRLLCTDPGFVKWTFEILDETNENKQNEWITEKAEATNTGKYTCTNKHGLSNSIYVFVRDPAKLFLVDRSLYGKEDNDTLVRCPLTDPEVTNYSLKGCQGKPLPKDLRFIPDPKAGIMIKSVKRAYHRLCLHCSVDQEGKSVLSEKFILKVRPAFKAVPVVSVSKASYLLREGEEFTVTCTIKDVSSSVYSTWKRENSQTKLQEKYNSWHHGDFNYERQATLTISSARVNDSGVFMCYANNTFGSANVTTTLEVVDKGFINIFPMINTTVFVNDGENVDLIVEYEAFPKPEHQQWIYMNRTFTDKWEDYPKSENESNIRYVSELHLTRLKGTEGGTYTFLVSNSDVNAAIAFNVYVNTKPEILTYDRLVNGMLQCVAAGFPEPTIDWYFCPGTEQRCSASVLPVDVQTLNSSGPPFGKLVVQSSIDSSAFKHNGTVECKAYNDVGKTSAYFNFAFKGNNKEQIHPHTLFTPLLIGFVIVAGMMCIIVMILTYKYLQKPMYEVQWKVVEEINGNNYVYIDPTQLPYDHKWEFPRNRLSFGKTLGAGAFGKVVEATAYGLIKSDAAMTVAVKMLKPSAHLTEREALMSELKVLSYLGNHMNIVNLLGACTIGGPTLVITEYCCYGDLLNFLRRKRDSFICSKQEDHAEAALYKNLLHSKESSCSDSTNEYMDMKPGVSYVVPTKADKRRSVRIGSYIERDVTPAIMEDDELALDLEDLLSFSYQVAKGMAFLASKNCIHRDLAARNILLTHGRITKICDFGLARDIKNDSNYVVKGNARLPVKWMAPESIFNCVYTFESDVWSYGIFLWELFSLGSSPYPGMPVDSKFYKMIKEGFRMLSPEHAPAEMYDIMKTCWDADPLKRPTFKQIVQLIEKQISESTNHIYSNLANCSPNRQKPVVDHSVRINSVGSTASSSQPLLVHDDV

[17] = molecular target: Non-receptor tyrosine-protein kinase TYK2 (Homo sapiens) (UniProt P29597); settings: Compound concentration 1000.0 nM
[18] = molecular target: Tyrosine-protein kinase Lyn (Homo sapiens) (UniProt P07948); settings: Compound concentration 1000.0 nM
Tyrosine-protein kinase Lyn (Homo sapiens), sequence (P07948 2-512 limits assumed): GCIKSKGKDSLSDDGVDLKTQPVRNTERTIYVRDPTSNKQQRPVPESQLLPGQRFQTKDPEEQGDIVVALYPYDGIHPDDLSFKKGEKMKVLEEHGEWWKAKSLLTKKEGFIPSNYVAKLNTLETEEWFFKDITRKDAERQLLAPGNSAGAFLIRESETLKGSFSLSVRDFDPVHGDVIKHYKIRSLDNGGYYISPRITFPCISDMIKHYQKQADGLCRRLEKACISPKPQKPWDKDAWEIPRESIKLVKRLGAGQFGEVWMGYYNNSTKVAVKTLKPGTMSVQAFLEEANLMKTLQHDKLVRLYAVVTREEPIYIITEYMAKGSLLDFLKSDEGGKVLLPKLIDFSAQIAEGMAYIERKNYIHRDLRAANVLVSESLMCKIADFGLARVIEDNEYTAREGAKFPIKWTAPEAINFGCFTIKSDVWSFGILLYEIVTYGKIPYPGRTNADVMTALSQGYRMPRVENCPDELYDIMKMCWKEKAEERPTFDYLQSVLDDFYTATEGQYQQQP

[19] = molecular target: Mitogen-activated protein kinase kinase kinase kinase 5 (Homo sapiens) (UniProt Q9Y4K4); settings: Compound concentration 1000.0 nM
[20] = molecular target: TGF-beta receptor type-1 (Homo sapiens) (UniProt P36897); settings: Compound concentration 1000.0 nM
[21] = molecular target: Membrane-associated tyrosine- and threonine-specific cdc2-inhibitory kinase (Homo sapiens) (UniProt Q99640); settings: Compound concentration 1000.0 nM
[22] = molecular target: Dual specificity mitogen-activated protein kinase kinase 2 (Homo sapiens) (UniProt P36507); settings: Compound concentration 1000.0 nM
[23] = system: ALK tyrosine kinase receptor (Homo sapiens), Q9UM73 [C1156Y]; settings: Compound concentration 1000.0 nM
[24] = molecular target: Death-associated protein kinase 3 (Homo sapiens) (UniProt O43293); settings: Compound concentration 1000.0 nM
[25] = molecular target: Mitogen-activated protein kinase 14 (Homo sapiens) (UniProt Q16539); settings: Compound concentration 1000.0 nM
Mitogen-activated protein kinase 14 (Homo sapiens), sequence (Q16539 whole entry): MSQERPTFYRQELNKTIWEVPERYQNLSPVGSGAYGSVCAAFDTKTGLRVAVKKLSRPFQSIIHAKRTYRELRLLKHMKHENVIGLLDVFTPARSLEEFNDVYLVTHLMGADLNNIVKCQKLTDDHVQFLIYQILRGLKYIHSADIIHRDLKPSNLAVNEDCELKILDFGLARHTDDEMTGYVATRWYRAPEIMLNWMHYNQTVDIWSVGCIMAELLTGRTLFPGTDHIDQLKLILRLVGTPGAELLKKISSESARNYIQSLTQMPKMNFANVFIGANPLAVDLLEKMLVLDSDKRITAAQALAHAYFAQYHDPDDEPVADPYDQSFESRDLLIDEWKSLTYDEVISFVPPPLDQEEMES

[26] = molecular target: Mitotic checkpoint serine/threonine-protein kinase BUB1 (Homo sapiens) (UniProt O43683); settings: Compound concentration 1000.0 nM
[27] = system: Fibroblast growth factor receptor 3 (Homo sapiens), P22607 [G697C]; settings: Compound concentration 1000.0 nM
[28] = system: Epidermal growth factor receptor (Homo sapiens), P00533 [T790M]; settings: Compound concentration 1000.0 nM
[29] = molecular target: SRSF protein kinase 1 (Homo sapiens) (UniProt Q96SB4); settings: Compound concentration 1000.0 nM
[30] = molecular target: Receptor tyrosine-protein kinase erbB-2 (Homo sapiens) (UniProt P04626); settings: Compound concentration 1000.0 nM
[31] = system: Phosphatidylinositol 4,5-bisphosphate 3-kinase catalytic subunit alpha isoform (Homo sapiens), P42336 [C420R]; settings: Compound concentration 1000.0 nM
Phosphatidylinositol 4,5-bisphosphate 3-kinase catalytic subunit alpha isoform (Homo sapiens), P42336 [C420R], sequence (P42336 whole entry C420R, canonical isoform): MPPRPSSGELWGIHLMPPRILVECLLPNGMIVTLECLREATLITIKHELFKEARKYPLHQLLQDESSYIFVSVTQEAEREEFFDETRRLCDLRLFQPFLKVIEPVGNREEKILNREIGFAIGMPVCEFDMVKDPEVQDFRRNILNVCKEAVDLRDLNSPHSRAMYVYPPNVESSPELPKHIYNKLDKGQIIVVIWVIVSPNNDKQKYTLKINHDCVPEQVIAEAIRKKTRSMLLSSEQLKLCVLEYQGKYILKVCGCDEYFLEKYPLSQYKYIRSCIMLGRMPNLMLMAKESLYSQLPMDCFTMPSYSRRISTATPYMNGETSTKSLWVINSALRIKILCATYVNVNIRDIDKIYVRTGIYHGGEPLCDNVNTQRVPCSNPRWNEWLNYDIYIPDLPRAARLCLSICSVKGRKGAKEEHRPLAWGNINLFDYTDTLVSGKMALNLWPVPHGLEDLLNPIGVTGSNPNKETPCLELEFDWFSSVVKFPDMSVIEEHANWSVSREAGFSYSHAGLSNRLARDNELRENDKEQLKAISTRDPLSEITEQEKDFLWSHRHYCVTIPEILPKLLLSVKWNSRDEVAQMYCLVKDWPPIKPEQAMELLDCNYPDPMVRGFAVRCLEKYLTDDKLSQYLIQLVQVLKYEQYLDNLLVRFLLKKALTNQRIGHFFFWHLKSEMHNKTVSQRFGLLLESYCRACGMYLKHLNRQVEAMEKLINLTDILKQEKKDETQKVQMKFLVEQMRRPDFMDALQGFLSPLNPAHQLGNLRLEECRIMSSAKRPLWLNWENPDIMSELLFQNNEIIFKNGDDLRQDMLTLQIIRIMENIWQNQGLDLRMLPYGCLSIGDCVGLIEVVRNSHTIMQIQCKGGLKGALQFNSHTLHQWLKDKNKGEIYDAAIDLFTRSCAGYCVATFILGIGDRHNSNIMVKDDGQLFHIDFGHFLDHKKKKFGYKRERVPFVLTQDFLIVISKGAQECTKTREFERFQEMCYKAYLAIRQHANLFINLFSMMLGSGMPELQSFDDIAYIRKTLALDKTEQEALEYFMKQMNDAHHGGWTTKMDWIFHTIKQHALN

[32] = molecular target: Calcium/calmodulin-dependent protein kinase type II subunit gamma (Homo sapiens) (UniProt Q13555); settings: Compound concentration 1000.0 nM
[33] = molecular target: Alpha-2B adrenergic receptor (Homo sapiens) (UniProt P18089); settings: Compound concentration 10.0 uM
[34] = molecular target: Serine/threonine-protein kinase 38-like (Homo sapiens) (UniProt Q9Y2H1); settings: Compound concentration 1000.0 nM
Serine/threonine-protein kinase 38-like (Homo sapiens), sequence (Q9Y2H1 2-464 limits assumed): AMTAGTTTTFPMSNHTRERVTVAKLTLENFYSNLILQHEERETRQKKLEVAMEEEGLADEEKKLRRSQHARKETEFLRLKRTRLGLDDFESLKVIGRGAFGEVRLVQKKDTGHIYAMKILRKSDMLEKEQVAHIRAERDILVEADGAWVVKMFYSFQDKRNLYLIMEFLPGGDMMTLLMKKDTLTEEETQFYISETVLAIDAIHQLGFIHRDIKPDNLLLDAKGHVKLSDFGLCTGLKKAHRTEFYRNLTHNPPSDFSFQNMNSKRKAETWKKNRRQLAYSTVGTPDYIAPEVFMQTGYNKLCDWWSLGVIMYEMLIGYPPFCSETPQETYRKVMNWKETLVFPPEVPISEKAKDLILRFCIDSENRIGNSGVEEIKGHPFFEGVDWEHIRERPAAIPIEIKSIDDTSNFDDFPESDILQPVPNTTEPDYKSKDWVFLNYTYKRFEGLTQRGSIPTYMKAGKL

[35] = molecular target: Cyclin-dependent kinase 19 (Homo sapiens) (UniProt Q9BWU1); settings: Compound concentration 1000.0 nM
Cyclin-dependent kinase 19 (Homo sapiens), sequence (Q9BWU1 whole entry): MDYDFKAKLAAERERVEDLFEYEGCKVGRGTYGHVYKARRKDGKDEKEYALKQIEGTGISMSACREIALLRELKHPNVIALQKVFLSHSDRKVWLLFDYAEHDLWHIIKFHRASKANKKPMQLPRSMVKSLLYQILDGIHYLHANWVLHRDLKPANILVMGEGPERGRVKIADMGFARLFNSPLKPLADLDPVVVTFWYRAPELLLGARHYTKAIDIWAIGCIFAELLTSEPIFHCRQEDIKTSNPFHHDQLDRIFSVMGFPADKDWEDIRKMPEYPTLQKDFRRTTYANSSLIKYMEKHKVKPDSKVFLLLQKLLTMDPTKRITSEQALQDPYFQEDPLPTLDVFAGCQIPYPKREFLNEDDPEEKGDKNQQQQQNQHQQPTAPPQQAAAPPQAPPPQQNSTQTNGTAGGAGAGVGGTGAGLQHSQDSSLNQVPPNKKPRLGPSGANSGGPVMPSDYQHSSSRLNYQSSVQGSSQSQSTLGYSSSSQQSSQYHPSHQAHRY

[36] = molecular target: Insulin receptor (Homo sapiens) (UniProt P06213); settings: Compound concentration 1000.0 nM
[37] = molecular target: Serine/threonine-protein kinase mTOR (Homo sapiens) (UniProt P42345); settings: Compound concentration 1000.0 nM
[38] = molecular target: Serine/threonine-protein kinase N1 (Homo sapiens) (UniProt Q16512); settings: Compound concentration 1000.0 nM
[39] = molecular target: Cyclin-dependent kinase 8 (Homo sapiens) (UniProt P49336); settings: Compound concentration 1000.0 nM
[40] = molecular target: Ankyrin repeat and protein kinase domain-containing protein 1 (Homo sapiens) (UniProt Q8NFD2); settings: Compound concentration 1000.0 nM
[41] = molecular target: Interferon-induced, double-stranded RNA-activated protein kinase (Homo sapiens) (UniProt P19525); settings: Compound concentration 1000.0 nM
[42] = molecular target: Muscarinic acetylcholine receptor M3 (Homo sapiens) (UniProt P20309); settings: Compound concentration 10.0 uM
[43] = molecular target: Serine/threonine-protein kinase Chk2 (Homo sapiens) (UniProt O96017); settings: Compound concentration 1000.0 nM
[44] = system: Receptor-type tyrosine-protein kinase FLT3 (Homo sapiens), P36888 [UNDEFINED MUTATION]; settings: Compound concentration 1000.0 nM
[45] = system: Phosphatidylinositol 4,5-bisphosphate 3-kinase catalytic subunit alpha isoform (Homo sapiens), P42336 [I800L]; settings: Compound concentration 1000.0 nM
Phosphatidylinositol 4,5-bisphosphate 3-kinase catalytic subunit alpha isoform (Homo sapiens), P42336 [I800L], sequence (P42336 whole entry I800L, canonical isoform): as the sequence (P42336 whole entry C420R, canonical isoform) above, with R420C, I800L counted along it

Mitogen-activated protein kinase 8 (Homo sapiens), sequence (P45983 whole entry): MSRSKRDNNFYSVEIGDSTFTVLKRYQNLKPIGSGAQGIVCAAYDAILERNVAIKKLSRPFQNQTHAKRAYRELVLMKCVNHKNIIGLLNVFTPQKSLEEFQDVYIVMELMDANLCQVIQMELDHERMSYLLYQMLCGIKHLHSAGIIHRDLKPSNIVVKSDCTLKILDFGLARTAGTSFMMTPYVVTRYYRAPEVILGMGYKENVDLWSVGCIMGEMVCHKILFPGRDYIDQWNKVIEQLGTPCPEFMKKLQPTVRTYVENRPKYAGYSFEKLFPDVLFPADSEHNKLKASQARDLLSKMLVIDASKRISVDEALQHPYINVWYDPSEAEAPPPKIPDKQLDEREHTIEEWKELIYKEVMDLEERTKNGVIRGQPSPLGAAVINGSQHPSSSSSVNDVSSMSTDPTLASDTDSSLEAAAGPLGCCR

## CO[C@@H](C)c1c(Nc2ccc([C@@H](N(C)C(=O)C3CCS(=O)(=O)CC3)C(F)(F)F)cc2)cnc2cc(Cl)nn12 [NVS-MALT1-C]
[1]
  residual activity: 100%
[2]
  residual activity: 74%
[3]
  residual activity: 69%
[4]
  inhibition: -1.2%
[5]
  residual activity: 100%
[6]
  residual activity: 92%
[7]
  residual activity: 97%
[8]
  residual activity: 59%
[9]
  residual activity: 100%
[10]
  residual activity: 100%
[11]
  residual activity: 100%
[12]
  residual activity: 98%
[13]
  residual activity: 100%
[14]
  residual activity: 85%
[15]
  residual activity: 100%
[16]
  residual activity: 85%
[17]
  residual activity: 100%
[18]
  residual activity: 97%
[19]
  residual activity: 100%
[20]
  residual activity: 95%
[21]
  residual activity: 99%
[22]
  residual activity: 97%
[23]
  residual activity: 79%
[24]
  residual activity: 47%
[25]
  residual activity: 83%
[26]
  residual activity: 100%
[27]
  residual activity: 84%
[28]
  residual activity: 100%
[29]
  residual activity: 95%
[30]
  residual activity: 70%
[31]
  residual activity: 93%
[32]
  residual activity: 84%
[33]
  inhibition: 1.55%
[34]
  residual activity: 75%
[35]
  residual activity: 81%
[36]
  residual activity: 95%
[37]
  residual activity: 100%
[38]
  residual activity: 99%
[39]
  residual activity: 96%
[40]
  residual activity: 100%
[41]
  residual activity: 88%
[42]
  inhibition: -2.58%
[43]
  residual activity: 100%
[44]
  residual activity: 66%
[45]
  residual activity: 71%

## CO[C@@H](C)c1c(Nc2ccc([C@H](N(C)C(=O)C3CCS(=O)(=O)CC3)C(F)(F)F)cc2)cnc2cc(Cl)nn12 [NVS-MALT1]
[1]
  residual activity: 99%
[2]
  residual activity: 57%
[3]
  residual activity: 86%
[4]
  inhibition: -6.2%
[5]
  residual activity: 100%
[6]
  residual activity: 96%
[7]
  residual activity: 100%
[8]
  residual activity: 66%
[9]
  residual activity: 75%
[10]
  residual activity: 100%
[11]
  residual activity: 100%
[12]
  residual activity: 99%
[13]
  residual activity: 100%
[14]
  residual activity: 96%
[15]
  residual activity: 100%
[16]
  residual activity: 98%
[17]
  residual activity: 100%
[18]
  residual activity: 77%
[19]
  residual activity: 88%
[20]
  residual activity: 94%
[21]
  residual activity: 85%
[22]
  residual activity: 96%
[23]
  residual activity: 89%
[24]
  residual activity: 91%
[25]
  residual activity: 88%
[26]
  residual activity: 100%
[27]
  residual activity: 86%
[28]
  residual activity: 90%
[29]
  residual activity: 96%
[30]
  residual activity: 59%
[31]
  residual activity: 93%
[32]
  residual activity: 77%
[33]
  inhibition: 0.32%
[34]
  residual activity: 75%
[35]
  residual activity: 73%
[36]
  residual activity: 87%
[37]
  residual activity: 100%
[38]
  residual activity: 100%
[39]
  residual activity: 39%
[40]
  residual activity: 100%
[41]
  residual activity: 96%
[42]
  inhibition: -8.44%
[43]
  residual activity: 90%
[44]
  residual activity: 71%
[45]
  residual activity: 55%
